Patent publication US5837548A, “Treatment of inflammation by inhibition of lipid body formation” (Beth Israel Hospital, priority 1995, dated 1998)
Structures can show the parent of a compound that is named as a salt. Where two headings read alike, the source gives them in different places.

Legend:
[1] = test system: human neutrophils; test: cis-unsaturated fatty acid-induced lipid body formation in human neutrophils (osmium staining, light microscopy enumeration); assay type: cell-based; conditions: for inhibition at 1 µM / inhibition at 10 µM / inhibition at 5 µM / inhibition at 1 µg/mL / inhibition at 0.5 µM: Homo sapiens, Neutrophil, basal subtracted; for inhibition at 1 µM / inhibition at 10 µM: read-out: % inhibition; for inhibition at 1 µg/mL: 1 h; for inhibition of arachidonic acid-induced lipid body formation / inhibition of oleic acid-induced lipid body formation: human neutrophils, staurosporine 0.1-1.0 μM, aspirin 10 μg/mL, others as in Tables 1 and 2
Description: Neutrophils were purified from fresh human blood obtained by venipuncture from healthy adult volunteers and collected into acidified citrate. After addition of 6% dextran 70 (McGaw, Irvine, Calif.), RBCs were allowed to sediment for 1 hour at room temperature. The leukocyte-rich supernatant was overlaid onto an equal volume of Ficoll-Paque gradient (Piscataway, N.J.), and centrifuged at 400×g for 20 min. […] Residual RBCs were lysed with hypotonic saline.
Human leukocytes (10^6 cells/mL) were incubated with varying concentrations of arachidonic acid (AA), oleic acid (OA) or vehicle at 37° C. in a 5% CO2 /95% O2 atmosphere, and after 1 hour leukocytes (10^5 cells per slide) were cytocentrifuged (550 rpm, 5 min) onto glass slides. During inhibitory studies, neutrophils were pretreated for 1 hour with varying concentrations of enzyme inhibitors, protein synthesis inhibitors, or vehicle as indicated. When PKC inhibitors were used, the pre-incubation time was reduced to 30 minutes to avoid toxic effects to the cells. […] Stock solutions for A23187, D609, U-73122, and indomethacin were prepared in DMSO and stored at -20° C. Aliquots were diluted in Ca^++ /Mg^++ fee HBSS to the indicated concentration immediately prior to use. […] The morphology of fixed cells was observed, and lipid bodies were enumerated with phase contrast microscopy and a 100× objective lens in 50 consecutively scanned leukocytes.
Results were expressed as mean±SEM and were analyzed statistically by means of the analysis of variance followed by the Newman-Keuls-Student test with the level of significance set at p<0.05. Correlation coefficients were determined by linear regression, and correlation analysis was performed by Fisher's r to z transformation with the level of significance set at p<0.05.
^1 Neutrophils (10^6 /ml) were pretreated with protein kinase C
(actinomycin D, cycloheximide) for 30 min or with phospholipase C
inhibitors (D609, U73122) for 1 h. The cells were then stimulated with
vehicle, arachidonic acid (15 μM), or oleic acid (10 μM), for 1 h.
Results are mean ± SEM from fifty consecutively counted neutrophils.
Statistically significant differences between the agonist alone and the
inhibitor are represented by an asterisk(*). Percent inhibition has been
calculated after subtracting out the basal number of lipid bodies/PMN
present prior to stimulation.
^1 Neutrophils (10^6 /ml) were pretreated with the NSAID or
vehicle for 1 h then stimulated with vehicle, arachidonic acid, or oleic
± SEM from fifty consecutively counted neutrophils. Statistically
significant differences between the agonist alone and the NSAID are
represented by an asterisk (*). Percent inhibition has been calculated
after subtracting out the basal number of lipid bodies/PMN present prior

[2] = test system: human eosinophils; conditions: receptor-mediated; cited from earlier work
[3] = test system: human neutrophils; conditions: cited from earlier work
[4] = test system: neutrophils (arachidonic acid uptake); test: 14C-arachidonic acid uptake in arachidonic acid-stimulated neutrophils; assay type: cell-based, human; conditions: for inhibition of 14C-arachidonic acid uptake: arachidonic acid-stimulated cells, aspirin 10 μg/mL, sodium salicylate 10 μg/mL, indomethacin 1 μg/mL; for 14C-AA uptake: stimulus arachidonate 15 μM, drug 1 μg/ml (table footnote)
Description: Neutrophils (10^6 /mL) were labeled with ^14 C-arachidonic acid (0.01 μCi/sample) together with either vehicle, aspirin (10 μg/mL), indomethacin (1 μg/mL) or sodium salicylate (10 μg/mL) for 1 hour. After the incubation period, lipid body formation was elicited by arachidonic acid (15 μM). The cells were washed 3 times in Ca^++ /Mg^++ free HBSS and analysis of incorporated ^14 C-arachidonic acid in the cell pellet was performed by liquid scintillation counting.
^1 The cells were pretreated with ^14 Carachidonic acid (0.01
μCi/sample) plus vehicle, aspirin (10 μg/ml) , sodium salicylate (1
μg/ml) or indomethacin (1 μg/ml) 1 h before the incubation with
arachidonic acid (15 μM). Cells were washed 3 times before the analysi
of incorporated ^14 Carachidonic acid. Results are representative of
independent experiments.

[5] = test system: peritoneal macrophages from wild type mice; test: lipid body formation in peritoneal macrophages from wild type mice; assay type: cell-based, mouse; conditions: for % inhibition / lipid bodies (mean ± SEM)/macrophage: wild type, AA 15 μM; for inhibition of lipid body formation in macrophages: wild-type mice, 10 μg/mL
Description: (§1) FIG. 4 is a graph illustrating the effects of arachidonic acid and oleic acid on lipid body formation in peritoneal macrophages from wild type (+/+) and cyclooxygenase-1 knockout (-/-) mice. The agonists AA and OA are represented by the square and circle symbols, respectively. The closed symbols represent the wild type mice; the open symbols represent the cyclooxygenase-1 knockout mice. Macrophages (10^6 /mL) were incubated with the agonists AA and OA at varying concentrations for an hour. Lipid bodies were enumerated using light microscopy following osmium staining. Each point represents the mean±SEM from fifty consecutively scanned macrophages.
(§2) Cyclooxygenase-1 and cyclooxygenase-2 knockout mice were generated as recently described (Morham et al., Cell 83:473-482 (1995); Langenbach et al., Cell 83:483-492 (1995)). All experiments were carried out with male 8-12 week old mice. Macrophages from cyclooxygenase genetically deficient mice and wild-type litter mates were obtained by lavaging the peritoneal cavity with 5 mL of cold RPMI containing heparin (20 IU/mL).
(§3) ^1 Peritoneal macrophages from wild type and COX 1 knockout mice were
(§4) pretreated with the NSAID or vehicle for 1h and then stimulated with
(§5) arachidonic acid (AA, 15 μM) or vehicle for 1h. Results are mean ±
(§6) SEM from fifty consecutively counted macrophages. The statistically

[6] = test system: peritoneal macrophages from COX 1 knockout mice; test: lipid body formation in peritoneal macrophages from cyclooxygenase-1 knockout mice; assay type: cell-based, mouse; conditions: for % inhibition / lipid bodies (mean ± SEM)/macrophage: COX 1 knockout, AA 15 μM; for inhibition of lipid body formation in macrophages: cyclooxygenase-1-deficient mice, 10 μg/mL
Description: as §1, §2, §3, §4, §5, §6

[7] = arachidonic acid 15 μM, inhibitor 1 μM
[8] = arachidonic acid 15 μM, inhibitor 10 μM
[9] = oleic acid 10 μM, inhibitor 1 μM
[10] = oleic acid 10 μM, inhibitor 10 μM
[11] = arachidonic acid 15 μM, inhibitor 5 μM
[12] = oleic acid 10 μM, inhibitor 5 μM
[13] = arachidonic acid 15 μM, NSAID 1 μg/ml, 1 h pretreatment
[14] = oleic acid 10 μM, NSAID 1 μg/ml, 1 h pretreatment
[15] = oleic acid 10 μM, NSAID 10 μg/ml, 1 h pretreatment
[16] = arachidonic acid 15 μM, inhibitor 0.5 μM
[17] = oleic acid 10 μM, inhibitor 0.5 μM

S=C(S)OC1CC2CC1C1CCCC21 (stereo not drawn) [D609]
inhibition at 1 µM [1, 7]: 48%
inhibition at 10 µM [1, 8]: 84%
inhibition at 1 µM [1, 9]: 19%
inhibition at 10 µM [1, 10]: 46%
lipid bodies (mean ± SEM)/cell [1, 7]: 6.5 ± 0.2 lipid bodies/cell
lipid bodies (mean ± SEM)/cell [1, 8]: 5.2 ± 0.2 lipid bodies/cell
lipid bodies (mean ± SEM)/cell [1, 9]: 9.4 ± 0.3 lipid bodies/cell
lipid bodies (mean ± SEM)/cell [1, 10]: 7.8 ± 0.2 lipid bodies/cell

CCCCC[C@H](O)/C=C/C=C\C/C=C\C/C=C\CCCC(=O)O [15-HETE]
induction of lipid body formation [2]: elicit lipid body formation
induction of lipid body formation [3]: elicit lipid body formation

CN[C@@H]1C[C@H]2O[C@@](C)([C@@H]1OC)n1c3ccccc3c3c4c(c5c6ccccc6n2c5c31)C(=O)NC4 [staurosporine]
lipid bodies (mean ± SEM)/cell ([1]; arachidonic acid 15 μM, inhibitor 0.1 μM): 6.1 ± 0.3 lipid bodies/cell
lipid bodies (mean ± SEM)/cell [1, 7]: 5.1 ± 0.2 lipid bodies/cell
lipid bodies (mean ± SEM)/cell ([1]; oleic acid 10 μM, inhibitor 0.1 μM): 8.3 ± 0.3 lipid bodies/cell
lipid bodies (mean ± SEM)/cell [1, 9]: 7.7 ± 0.3 lipid bodies/cell

COc1ccc2c(c1)CC[C@@H]1[C@@H]2CC[C@]2(C)[C@@H](NCCCCCCN3C(=O)C=CC3=O)CC[C@@H]12 [U-73122]
inhibition at 1 µM [1, 7]: 45%
inhibition at 5 µM [1, 11]: 85%
inhibition at 1 µM [1, 9]: 8%
inhibition at 5 µM [1, 12]: 24%
lipid bodies (mean ± SEM)/cell [1, 7]: 6.6 ± 0.2 lipid bodies/cell
lipid bodies (mean ± SEM)/cell [1, 11]: 4.9 ± 0.2 lipid bodies/cell
lipid bodies (mean ± SEM)/cell [1, 9]: 19.3 ± 0.4 lipid bodies/cell
lipid bodies (mean ± SEM)/cell [1, 12]: 16.9 ± 0.4 lipid bodies/cell

COc1ccc2c(c1)c(CC(=O)O)c(C)n2C(=O)c1ccc(Cl)cc1 [indomethacin]
inhibition of 14C-arachidonic acid uptake [4]: failed to inhibit
14C-AA uptake [4]: 7095 cpm
% inhibition ([5]; NSAID 1 μg/ml): 61%
lipid bodies (mean ± SEM)/macrophage ([5]; NSAID 1 μg/ml): 4.4 ± 0.3 lipid bodies/macrophage
inhibition of lipid body formation in macrophages [5]: significantly inhibited
inhibition at 1 µg/mL [1, 13]: 63%
inhibition at 1 µg/mL [1, 14]: 61%
lipid bodies (mean ± SEM) PMN [1, 13]: 7.0 ± 0.5 lipid bodies/PMN
inhibition of arachidonic acid-induced lipid body formation [1]: significantly inhibited
inhibition of oleic acid-induced lipid body formation [1]: significantly inhibited
lipid bodies (mean ± SEM) PMN [1, 14]: 9.1 ± 0.5 lipid bodies/PMN
% inhibition ([6]; NSAID 1 μg/ml): 48%
lipid bodies (mean ± SEM)/macrophage ([6]; NSAID 1 μg/ml): 4.8 ± 0.4 lipid bodies/macrophage
inhibition of lipid body formation in macrophages [6]: significantly inhibited

O=C(O)c1ccccc1O [Na salicylate, salicylic acid (sodium salt)]
inhibition of 14C-arachidonic acid uptake [4]: failed to inhibit
14C-AA uptake [4]: 7292 cpm
% inhibition ([5]; NSAID 10 μg/ml): 45%
lipid bodies (mean ± SEM)/macrophage ([5]; NSAID 10 μg/ml): 5.0 ± 0.3 lipid bodies/macrophage
inhibition of lipid body formation in macrophages [5]: significantly inhibited
inhibition at 10 µM [1, 15]: 53%
lipid bodies (mean ± SEM) PMN ([1]; arachidonic acid 15 μM, NSAID 10 μg/ml, 1 h pretreatment): 7.9 ± 0.4 lipid bodies/PMN
inhibition of arachidonic acid-induced lipid body formation [1]: significantly inhibited
inhibition of oleic acid-induced lipid body formation [1]: significantly inhibited
lipid bodies (mean ± SEM) PMN [1, 15]: 10.1 ± 0.4 lipid bodies/PMN
% inhibition ([6]; NSAID 10 μg/ml): 66%
lipid bodies (mean ± SEM)/macrophage ([6]; NSAID 10 μg/ml): 4.0 ± 0.4 lipid bodies/macrophage
inhibition of lipid body formation in macrophages [6]: significantly inhibited

COc1ccc2c(c[n+](C)c3c4cc5c(cc4ccc23)OCO5)c1OC [chelerythrine]
inhibition at 0.5 µM [1, 16]: 50%
inhibition at 1 µM [1, 7]: 90%
inhibition at 0.5 µM [1, 17]: 25%
inhibition at 1 µM [1, 9]: 71%
lipid bodies (mean ± SEM)/cell [1, 16]: 7.5 ± 0.3 lipid bodies/cell
lipid bodies (mean ± SEM)/cell [1, 7]: 5.1 ± 0.3 lipid bodies/cell
lipid bodies (mean ± SEM)/cell [1, 17]: 7.5 ± 0.2 lipid bodies/cell
lipid bodies (mean ± SEM)/cell [1, 9]: 5.8 ± 0.3 lipid bodies/cell
